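Grown in 96-well plates, cells were treated for 48 hours with each compound at five concentrations. Insufficient inhibition: endpoint recorded as highest concentration tested. GI50 marks 50% less growth.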 Calls of active or inactive are those of the source. Cut-off read from the data, not from the text of the source: active = GI50 up to about 1.1 µM and inactive = higher.
What was measured:
Test in all cases: NCI tumour cell line growth inhibition, 48 h
SW-620 = tested on: SW-620
HT-29 = tested on: HT-29
T47D = tested on: T47D
PC-3 = tested on: PC-3
CCRF-CEM = tested on: CCRF-CEM
OVCAR-5 = tested on: OVCAR-5
OVCAR-4 = tested on: OVCAR-4
OVCAR-8 = tested on: OVCAR-8
OVCAR-3 = tested on: OVCAR-3
KM12 = tested on: KM12
SK-MEL-5 = tested on: SK-MEL-5
IGROV-1 = tested on: IGROV-1
DU-145 = tested on: DU-145
U-251 = tested on: U-251
M14 = tested on: M14
HOP-92 = tested on: HOP-92
RPMI-8226 = tested on: RPMI-8226
Malme-3M = tested on: Malme-3M
NCI-H460 = tested on: NCI-H460
SNB-19 = tested on: SNB-19

Compound | GI50 (SW-620) | GI50 (HT-29) | GI50 (T47D) | GI50 (PC-3) | GI50 (CCRF-CEM) | GI50 (OVCAR-5) | GI50 (OVCAR-4) | GI50 (OVCAR-8) | GI50 (OVCAR-3) | GI50 (KM12) | GI50 (SK-MEL-5) | GI50 (IGROV-1) | GI50 (DU-145) | GI50 (U-251) | GI50 (M14) | GI50 (HOP-92) | GI50 (RPMI-8226) | GI50 (Malme-3M) | GI50 (NCI-H460) | GI50 (SNB-19)
O=C(NNc1ccnc2cc(Cl)ccc12)/C(=C\c1ccccc1Cl)NC(=O)c1ccccc1 | 37.9 µM (inactive) | 47.8 µM (inactive) | 32.2 µM (inactive) | 36.1 µM (inactive) | 29.8 µM (inactive) | 39.7 µM (inactive) | 32.8 µM (inactive) | 20 µM (inactive) | 16.5 µM (inactive) | 20.5 µM (inactive) | 23.8 µM (inactive) | 12.5 µM (inactive) | 55.7 µM (inactive) | 17.3 µM (inactive) | 31.3 µM (inactive) | 35.6 µM (inactive) | 29.2 µM (inactive) | 52.6 µM (inactive) | 42.1 µM (inactive) | 46.2 µM (inactive)
COC(=O)[C@H](Cc1ccccc1)NC(=O)CCCCCCC(=O)NO | 11.6 µM (inactive) | 17.6 µM (inactive) | 0.605 µM (active) | 8.79 µM (inactive) | 2.67 µM (inactive) | 4.18 µM (inactive) | 39.8 µM (inactive) | 5.28 µM (inactive) | 10.7 µM (inactive) | 28.8 µM (inactive) | 8.91 µM (inactive) | 17.7 µM (inactive) | 7.23 µM (inactive) | 17.3 µM (inactive) | 20.9 µM (inactive) | 17.3 µM (inactive) | 4.62 µM (inactive) | 2.65 µM (inactive) | 12.3 µM (inactive) | > 100 µM (inactive)
CCn1c2ccc(C(=O)CCCN3CCCCC3)cc2c2cc(C(=O)CCCN3CCCCC3)ccc21 | 1.01 µM (active) | 1.39 µM (inactive) | 24.2 µM (inactive) | 2.13 µM (inactive) | 2.4 µM (inactive) | 6.95 µM (inactive) | 1.33 µM (inactive) | 1.44 µM (inactive) | 2.11 µM (inactive) | 1.98 µM (inactive) | 1.56 µM (inactive) | 2.08 µM (inactive) | 5.33 µM (inactive) | 2.13 µM (inactive) | 2.04 µM (inactive) | 10.4 µM (inactive) | 1.75 µM (inactive) | 6.85 µM (inactive) | 0.998 µM (active) | 2.58 µM (inactive)
NC(=O)c1ccc(C(=O)Nc2ccc([As](=O)(O)O)cc2)cc1 | > 100 µM (inactive) | > 100 µM (inactive) | > 100 µM (inactive) | > 100 µM (inactive) | > 100 µM (inactive) | > 100 µM (inactive) | > 100 µM (inactive) | > 100 µM (inactive) | > 100 µM (inactive) | > 100 µM (inactive) | > 100 µM (inactive) | > 100 µM (inactive) | > 100 µM (inactive) | > 100 µM (inactive) | > 100 µM (inactive) | > 100 µM (inactive) | > 100 µM (inactive) | > 100 µM (inactive) | > 100 µM (inactive) | > 100 µM (inactive)
Cc1cc2occ(S(=O)(=O)NC(=O)Nc3ccc(Cl)cc3)c(=O)c2c(=O)o1 | > 100 µM (inactive) | > 100 µM (inactive) | > 100 µM (inactive) | > 100 µM (inactive) | > 100 µM (inactive) | > 100 µM (inactive) | > 100 µM (inactive) | > 100 µM (inactive) | > 100 µM (inactive) | > 100 µM (inactive) | > 100 µM (inactive) | > 100 µM (inactive) | > 100 µM (inactive) | > 100 µM (inactive) | > 100 µM (inactive) | > 100 µM (inactive) | > 100 µM (inactive) | > 100 µM (inactive) | > 100 µM (inactive) | > 100 µM (inactive)
Cn1c(N/N=C/c2ccccc2)nc(-c2ccc3c(c2)OCO3)c(C#N)c1=O | > 100 µM (inactive) | > 100 µM (inactive) | > 100 µM (inactive) | 56.8 µM (inactive) | 94 µM (inactive) | > 100 µM (inactive) | 61.7 µM (inactive) | 22.8 µM (inactive) | 27.5 µM (inactive) | 88.1 µM (inactive) | 69 µM (inactive) | 20.9 µM (inactive) | 84.5 µM (inactive) | > 100 µM (inactive) | > 100 µM (inactive) | 2.85 µM (inactive) | 47.1 µM (inactive) | > 100 µM (inactive) | 87.7 µM (inactive) | > 100 µM (inactive)
COc1cc(CC(C)C(C)Cc2ccc(O)c(OC)c2)ccc1O (stereo not given) [DIHYDROGUAIARETIC ACID] | 18.2 µM (inactive) | 22.5 µM (inactive) | 16.3 µM (inactive) | 10.8 µM (inactive) | 13.3 µM (inactive) | > 50 µM (inactive) | 20.1 µM (inactive) | 15.6 µM (inactive) | 16 µM (inactive) | 14.7 µM (inactive) | 8.55 µM (inactive) | 12.7 µM (inactive) | 22.3 µM (inactive) | 14.8 µM (inactive) | 14.1 µM (inactive) | 11.7 µM (inactive) | 7.93 µM (inactive) | 13.1 µM (inactive) | 14.5 µM (inactive) | 21.8 µM (inactive)
CC1=NN(c2nc(N)nc(/C(C#N)=C/c3ccc([N+](=O)[O-])o3)n2)C(C)(C)C1 | 1.76 µM (inactive) | 2.09 µM (inactive) | 2.61 µM (inactive) | 9.68 µM (inactive) | 1.3 µM (inactive) | 1.58 µM (inactive) | 10.2 µM (inactive) | 2.51 µM (inactive) | 3.32 µM (inactive) | 13.9 µM (inactive) | 5.4 µM (inactive) | 2.05 µM (inactive) | 6.35 µM (inactive) | 5.21 µM (inactive) | 1.57 µM (inactive) | 1.95 µM (inactive) | 3.01 µM (inactive) | 2.01 µM (inactive) | 2.57 µM (inactive) | 15.7 µM (inactive)
O=C(O)c1cccc(CC(Br)C(=O)O)c1 (stereo not given) | > 100 µM (inactive) | > 100 µM (inactive) | > 100 µM (inactive) | > 100 µM (inactive) | > 100 µM (inactive) | > 100 µM (inactive) | > 100 µM (inactive) | > 100 µM (inactive) | > 100 µM (inactive) | > 100 µM (inactive) | > 100 µM (inactive) | > 100 µM (inactive) | > 100 µM (inactive) | > 100 µM (inactive) | > 100 µM (inactive) | > 100 µM (inactive) | > 100 µM (inactive) | > 100 µM (inactive) | > 100 µM (inactive) | > 100 µM (inactive)
OC(CC(CC(O)(C(F)(F)F)C(F)(F)F)=NN=C(CC(O)(C(F)(F)F)C(F)(F)F)CC(O)(C(F)(F)F)C(F)(F)F)(C(F)(F)F)C(F)(F)F | > 10 µM (inactive) | > 10 µM (inactive) | > 10 µM (inactive) | > 10 µM (inactive) | > 10 µM (inactive) | > 10 µM (inactive) | > 10 µM (inactive) | > 10 µM (inactive) | > 10 µM (inactive) | > 10 µM (inactive) | > 10 µM (inactive) | > 10 µM (inactive) | > 10 µM (inactive) | > 10 µM (inactive) | > 10 µM (inactive) | > 10 µM (inactive) | > 10 µM (inactive) | > 10 µM (inactive) | > 10 µM (inactive) | > 10 µM (inactive)
CC(=O)Nc1ccc2cc3[nH]c4cc(NC(C)=O)ccc4c3nc2c1 | > 100 µM (inactive) | > 100 µM (inactive) | 31.3 µM (inactive) | > 100 µM (inactive) | 38 µM (inactive) | > 100 µM (inactive) | > 100 µM (inactive) | > 100 µM (inactive) | > 100 µM (inactive) | 21.7 µM (inactive) | > 100 µM (inactive) | > 100 µM (inactive) | > 100 µM (inactive) | 77.4 µM (inactive) | > 100 µM (inactive) | > 100 µM (inactive) | > 100 µM (inactive) | > 100 µM (inactive) | > 100 µM (inactive) | > 100 µM (inactive)
Cn1c(=O)c2c(nc(N3CCOCC3)n2CCCNCC(O)c2ccc(O)c(O)c2)n(C)c1=O (stereo not given) | > 100 µM (inactive) | > 100 µM (inactive) | > 100 µM (inactive) | > 100 µM (inactive) | > 100 µM (inactive) | 23.9 µM (inactive) | > 100 µM (inactive) | 25.4 µM (inactive) | > 100 µM (inactive) | > 100 µM (inactive) | > 100 µM (inactive) | > 100 µM (inactive) | > 100 µM (inactive) | > 100 µM (inactive) | > 100 µM (inactive) | > 100 µM (inactive) | > 100 µM (inactive) | > 100 µM (inactive) | > 100 µM (inactive) | > 100 µM (inactive)
CCCCCCCCCCCCCCCCCCOCC(COCCOCC[N+]1(CCCCCC(=O)[O-])CCCC1)Oc1ncccn1 (stereo not given) | 4.57 µM (inactive) | 1.73 µM (inactive) | 5.13 µM (inactive) | 0.643 µM (active) | 2.59 µM (inactive) | 2.99 µM (inactive) | 2.2 µM (inactive) | 2.56 µM (inactive) | 5.2 µM (inactive) | 2.58 µM (inactive) | 4.22 µM (inactive) | 0.622 µM (active) | 13.3 µM (inactive) | 0.547 µM (active) | 7.41 µM (inactive) | 1.05 µM (active) | 1.04 µM (active) | 16.7 µM (inactive) | 2.36 µM (inactive) | 2.17 µM (inactive)
O=C1NC(=O)C(c2c[nH]c3ccccc23)=C1c1cn(C(c2ccccc2)(c2ccccc2)c2ccccc2)cn1 | 8.81 µM (inactive) | 4.06 µM (inactive) | 7.19 µM (inactive) | 2.58 µM (inactive) | 3.98 µM (inactive) | 8.73 µM (inactive) | 4.06 µM (inactive) | 5.33 µM (inactive) | 6.76 µM (inactive) | 4.06 µM (inactive) | 7.57 µM (inactive) | 8.87 µM (inactive) | 19.6 µM (inactive) | 4.25 µM (inactive) | 4.76 µM (inactive) | 7.13 µM (inactive) | 3.13 µM (inactive) | 10.4 µM (inactive) | 3.66 µM (inactive) | 11.3 µM (inactive)
